Data reported in patent US6383773B2, “Penicillin conversion” (Massachusetts Institute of Technology, priority 1998, dated 2002).

How the values were obtained:
[1] = target: T1, S. clavuligerus expandase (Streptomyces clavuligerus, UniProt P18548); assay: Penicillin ring expansion by cell-free S. clavuligerus expandase extracts, paper disc-agar diffusion bioassay; type: biochemical; details: for DAOG: cell-free extract
T1 construct: endogenous in cells; host or cells: S. clavuligerus mutant NP1, crude cell-free extract
T1 sequence (P18548 whole entry, the tested form may be a part): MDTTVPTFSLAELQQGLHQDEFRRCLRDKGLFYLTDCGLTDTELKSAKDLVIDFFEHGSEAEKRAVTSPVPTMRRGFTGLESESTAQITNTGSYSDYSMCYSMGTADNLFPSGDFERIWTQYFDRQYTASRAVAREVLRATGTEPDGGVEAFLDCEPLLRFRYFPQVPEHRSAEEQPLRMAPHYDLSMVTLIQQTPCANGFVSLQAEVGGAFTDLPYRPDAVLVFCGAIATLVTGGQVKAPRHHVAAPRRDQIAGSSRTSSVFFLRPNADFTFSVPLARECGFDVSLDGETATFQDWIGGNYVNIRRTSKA
Description: Preparation of Cell-free Extracts: Fermentation broths were centrifuged at 8,000×g and 4° C. for 10 min. Pellets were washed twice using 50 mM Tris-HCI supplemented with 0.1 mM dithiothreitol (DTT). The cells were resuspended in the same buffer and disrupted by four 25-sec. sonication treatments (power setting 5 and duty cycle 50%), in an ice-water bath using a Branson 350 sonifier (Branson Sonic Power Co., Danbury, Conn.). Cell debris was removed by centrifugation (14,000×g, 30 min., 4° C.). The resulting extracts containing 8-10 mg protein/ml were placed on ice and utilized immediately. Protein concentrations were measured using the Bio-Rad protein assay (Bio-Rad, Hercules, Calif.). Bovine serum albumin was used as standard.
Ring Expansion Reaction: We defined ring expansion reaction conditions as modifications of the standard reaction mixture for expandase reactions described by Maeda et al. (Maeda et al., Enzyme Microb. Technol. 17:231-34, 1995) except that penicillin G was used a substrate instead of penicillin N. Additions were made following the order established by Shen et al. (Shen et al., Enzyme Microb. Technol. 6:402-404, 1984. Reaction mixtures were incubated in test tubes (cell-free extract) or 250 ml baffled flasks (resting cells) at 220 rpm, 30° C. Reactions containing the protein extract were stopped at various times (see Table 1 and Figure Legends) by mixing 0.5 ml of assay solution with 0.5 ml of methanol. In the case of resting cells, samples were centrifuged to remove cells and supernatants were transferred to new tubes. Expandase activity was detected by paper disc-agar diffusion bioassay.
Detection of Expandase Activity: As mentioned above, expandase activity was detected by assaying production of a growth-inhibitory zone in a paper disc-agar diffusion bioassay. Paper discs were saturated with 200 μl of the reaction mixture (cell-free extracts or supernatant (resting cells) as follows. Two discs were superimposed and four 50 μl samples were applied. After each application, the discs were allowed to dry for 20 min at 37° C. under a laminar hood and, finally, they were placed on LB (1% tryptone, 0.5% NaCl, 0.5% yeast extract, 0.1% glucose) 0.8% agar medium seeded with E. coli ESS (a β-lactam supersensitive mutant), and the plates were incubated overnight at 37° C. The formation of DAOG and/or other cephalosporin(s) was determined by including 50,000 IU/ml of penicillinase (Difco Bacto penase concentrate, Difco Laboratories, Detroit, Mich.) in the assay plates. This penicillinase is a narrow spectrum β-lactamase that attacks penicillins but not cephalosporins. The diameters of zones of growth inhibition were measured and quantified with a calibration curve using DAOG as standard.
Ring Expansion of Other Penicillins by Cell-free Extracts: We tested our reaction conditions for their ability to support ring expansion on other penicillin substrates and found detectable expansion with each of the 15 substrates that we tested. […] The reactions contained 4 mg/ml extract (protein concentration), 50 mM Tris-HCl pH 7.4, 1.8 mM FeSO4, 1.28 mM α-ketoglutarate, 8 mM MgSO4, 8 mM KCl, 4 mM ascorbic acid, 14 mM DTT, and 2 mg/ml substrate (except for penicillin mX and octanoyl-6-APA, which were used at 3 mg/ml). Samples were centrifuged at 12K rpm for 5 minutes after 2 hours of reaction. 250 μl of reaction mixture was used in each bioassay.

[2] = tested on: resting S. clavuligerus NP1 cells; assay: Penicillin G ring expansion by resting cells grown on alcohol (Example 3); type: cell-based

In the case of `CC1(C)S[C@@H]2[C@H](NC(=O)Cc3ccccc3)C(=O)N2[C@H]1C(=O)O` [Penicillin G, penicillin G], the “Ring expansion, size of zones of inhibition” value ([1]; 4 mg/ml extract protein, 2 mg/ml substrate (penicillin mX and octanoyl-6-APA 3 mg/ml), 2 hours) is reported as “Large zones of inhibition”, the “Inhibition Zone Diameter” value ([1]; 4 mg/ml extract protein, 2 mg/ml substrate, 2 hours of reaction, 250 μl in bioassay (E. coli ESS, penicillinase)) is reported as 29 mm and the DAOG ([1]; protein 1 mg/ml, FeSO4 0.036 mM, α-ketoglutarate 0.64 mM, penicillin G 0.1 mg/ml) is reported as <2 µg/mL. For the same compound, the DAOG ([1]; protein 1 mg/ml, FeSO4 0.036 mM, α-ketoglutarate 0.64 mM, penicillin G 0.3 mg/ml) was <2 µg/mL, the DAOG ([1]; protein 1 mg/ml, FeSO4 0.036 mM, α-ketoglutarate 0.64 mM, penicillin G 1 mg/ml) was 2.1 µg/mL and the DAOG ([1]; protein 1 mg/ml, FeSO4 1.8 mM, α-ketoglutarate 1.28 mM, penicillin G 0.1 mg/ml) was <2 µg/mL. For the same compound, the DAOG ([1]; protein 1 mg/ml, FeSO4 1.8 mM, α-ketoglutarate 1.28 mM, penicillin G 0.3 mg/ml) was <2 µg/mL, the DAOG ([1]; protein 1 mg/ml, FeSO4 1.8 mM, α-ketoglutarate 1.28 mM, penicillin G 1 mg/ml) was 2.1 µg/mL and the DAOG ([1]; protein 2 mg/ml, FeSO4 0.036 mM, α-ketoglutarate 0.64 mM, penicillin G 0.1 mg/ml) was <2 µg/mL. It also gave a DAOG ([1]; protein 2 mg/ml, FeSO4 0.036 mM, α-ketoglutarate 0.64 mM, penicillin G 0.3 mg/ml) of 2.1 µg/mL, a DAOG ([1]; protein 2 mg/ml, FeSO4 0.036 mM, α-ketoglutarate 0.64 mM, penicillin G 1 mg/ml) of 2.6 µg/mL and a DAOG ([1]; protein 2 mg/ml, FeSO4 1.8 mM, α-ketoglutarate 1.28 mM, penicillin G 0.1 mg/ml) of 2.1 µg/mL. For the same compound, the DAOG ([1]; protein 2 mg/ml, FeSO4 1.8 mM, α-ketoglutarate 1.28 mM, penicillin G 0.3 mg/ml) was 2.3 µg/mL, the DAOG ([1]; protein 2 mg/ml, FeSO4 1.8 mM, α-ketoglutarate 1.28 mM, penicillin G 1 mg/ml) was 3.4 µg/mL and the DAOG ([1]; protein 4 mg/ml, FeSO4 0.036 mM, α-ketoglutarate 0.64 mM, penicillin G 0.1 mg/ml) was 2.3 µg/mL. It also gave a DAOG ([1]; protein 4 mg/ml, FeSO4 0.036 mM, α-ketoglutarate 0.64 mM, penicillin G 0.3 mg/ml) of 2.6 µg/mL, a DAOG ([1]; protein 4 mg/ml, FeSO4 0.036 mM, α-ketoglutarate 0.64 mM, penicillin G 1 mg/ml) of 3.4 µg/mL and a DAOG ([1]; protein 4 mg/ml, FeSO4 1.8 mM, α-ketoglutarate 1.28 mM, penicillin G 0.1 mg/ml) of 2.8 µg/mL. For the same compound, the DAOG ([1]; protein 4 mg/ml, FeSO4 1.8 mM, α-ketoglutarate 1.28 mM, penicillin G 0.3 mg/ml) was 3.4 µg/mL, the DAOG ([1]; protein 4 mg/ml, FeSO4 1.8 mM, α-ketoglutarate 1.28 mM, penicillin G 1 mg/ml) was 5.6 µg/mL and the “penicillin G expansion” value ([2]; cells grown in MST medium with addition of an alcohol) was “completely inhibited”. For the same compound, the “Cephalosporin Production Volumetric” value ([2]; cells grown in MST, 3 hours of reaction, 5.6 mM penicillin G) was 5.8 µg/mL and the “Cephalosporin Production Specific” value ([2]; cells grown in MST, 3 hours of reaction, 5.6 mM penicillin G, per mg DCW) was 1.0 µg/mg.
